Where two headings read alike, the source gives them in different places.

Test [1] relates to spontaneously hypertensive male rats (SHR). As to the kind of experiment: Antihypertensive activity in spontaneously hypertensive rats. The conditions noted are these: Rattus norvegicus, po, 30 mg/kg oral, mean ± SEM of 3 to 4 SHRs, read-out: Blood pressure depression, %. It counts as in vivo. As for the experimental part: This test was carried out as follows. A test compound was dissolved in purified water, or alternatively the test compound was suspended in a 5% aqueous sodium carboxymethylcellulose solution. The solution or the suspension was forcibly administered into the gaster of SHR through an oral probe. The systolic pressure of SHR was measured with a bloodless sphygmometer (BP-98A, Softron Co.) immediately before the administration of the test compound and 3 to 4 hr after the administration of the test compound or 6 to 7 hr after the administration of the test compound. The percentage of blood pressure depression was calculated by the following equation: Antihypertensive activity (%)={(blood pressure before administration of test compound−blood pressure after administration of test compound)/blood pressure before administration of test compound}×100
Each compound was administered at 30 mg/kg, and the antihypertensive activity (%) was expressed in terms of the mean value of 3 to 4 SHRs and SEM (standard error of the mean).
For data with *, the blood pressure was measured 6 to 7 hr after the administration of the test compound, and, for data with no marks, the blood pressure was measured 3 to 4 hr after the administration of the test compound.

The target in test [2] is Rho kinase (fused protein of bovine Rho kinase catalyst region and glutathione S-transferase) (Bos taurus, UniProt Q28021). The experiment in a line: Rho kinase inhibitory activity (phosphorylation of S6 231–239 substrate, γ32P-ATP). Type of test: biochemical. The conditions noted are these: concentration inhibiting substrate phosphorylation by 50%. As for the experimental part:
This permits the substrate to be labeled with the radioisotope.
Thereafter, the substrate was adsorbed to a filter paper. ATP was washed away with a phosphoric acid solution, and the amount of the phosphorylated substrate was then measured with a liquid scintillation counter.

Test [3] has as its system Human-derived histiocyte lymphoma (U937/CCR2). The experiment in a line: Leukocyte migration inhibitory activity (MCP-1 induced migration, CHEMOTAXICELL). It counts as cell-based. Particulars: Homo sapiens, U-937, 1 h, U937/CCR2, MCP-1, 1 hr, read-out: Migration inhibition (%) ± SEM; for inhibition at 0.3 µM: test compound 0.3 μM; for inhibition at 1 µM: test compound 1 μM. On the procedure:
Human-derived histiocyte lymphoma (U937/CCR2), in which mouse-derived CCR2 had been highly expressed, was suspended in a 0.1% BSA-containing RPMI 1640 medium, to which a test compound had been added (5×10^6/ml), and the suspension was incubated for 20 min. A chemical solution (500 μl) (0.1% BSA-containing RPMI 1640 medium DMSO 1%), to which an MCP-1 ligand (1 μM) and the test compound had been added, was added to a 24-well plate. CHEMOTAXICELL was put thereon, and 200 μl of the cell suspension was added to the top layer, followed by migration under 5% carbon dioxide at 37° C. for one hr. The number of cells, which had migrated to the lower chamber, was counted with a particle count analyzer (CDA-500, SYSMEX CORPORATION), and the percentage migration inhibition was calculated by the following equation; Migration inhibition (%)={1−(number of migrated cells in the presence of test compound/number of migrated cells in the absence of test compound)}×100

The test system of test [4] is anti-GBM nephritis model WKY rats. As to the kind of experiment: Albuminuria amelioration activity for anti-GBM nephritis model using WKY rats. Type of test: in vivo, rat. Particulars: 24 hr urine, control group 840.4 ± 82.2. On the procedure: Anti-GBM antibody produced by immunizing domestic rabbits with a rat-derived GBM fraction was caudointravenously administered to WKY male rats of 9 weeks old to induce nephritis. […] During 24 hr from two weeks after the administration of the antibody, urine was collected, and the protein level of urine was measured to observe albuminuria amelioration activity.

For test [5], the system named is anti-GBM nephritis model S.D. rats. As to the kind of experiment: Albuminuria amelioration activity for anti-GBM nephritis model using S.D. rats. It counts as in vivo, rat. The conditions noted are these: oral 30 mg/kg twice daily, urine 0-24 hr after antibody, control group 794.2 ± 113.2. On the procedure: Anti-GBM antibody produced by immunizing domestic rabbits with a rat-derived GBM fraction was caudointravenously administered to S.D. male rats of 8 weeks old to induce nephritis. Immediately after the administration of the antibody and six hr after the administration of the antibody, the compound of Example 300 was orally administered at 30 mg/kg. Urine was collected in a period between immediately after the administration of the antibody and 24 hr after the administration of the antibody, and the protein level of urine was measured to observe albuminuria amelioration activity.

The mark [6] stands for this setting: systolic pressure 3 to 4 hr after administration.
The mark [7] stands for this setting: systolic pressure 6 to 7 hr after administration (data with *).

Chain of Rho kinase (fused protein of bovine Rho kinase catalyst region and glutathione S-transferase) (Q28021 92-354 limits assumed): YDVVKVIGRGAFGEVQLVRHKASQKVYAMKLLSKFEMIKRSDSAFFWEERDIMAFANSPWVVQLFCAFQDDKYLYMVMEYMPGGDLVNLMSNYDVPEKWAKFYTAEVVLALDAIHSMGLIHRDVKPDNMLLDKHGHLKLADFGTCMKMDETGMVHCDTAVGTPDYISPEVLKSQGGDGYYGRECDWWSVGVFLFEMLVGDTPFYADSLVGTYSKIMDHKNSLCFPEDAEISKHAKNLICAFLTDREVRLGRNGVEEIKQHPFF

On to `c1ccc(CN2CCCC(Nc3ccc4[nH]ncc4c3)C2)cc1` (stereo not shown) [Example 21], for which the inhibition in vivo at 30 mg/kg in test [1] (setting [6]) was 37 ± 2.5%. Besides, in test [2], inhibition was half-maximal at 20 nM (IC50).

On to `c1ccc(CN2CCC(Nc3ccc4[nH]ncc4c3)CC2)cc1` [Example 126, N-(1-benzyl-4-piperidyl)-N-(1H-5-indazolyl)-amine], for which the inhibition in vivo at 30 mg/kg in test [1] (setting [6]) turned out to be 18 ± 3.5%. Also, the inhibition at 30 µM in test [3] (test compound 30 μM) came out at 49.1 ± 4.6%. As to `Fc1ccc(CN2CCCC(Nc3ccc4[nH]ncc4c3)C2)cc1` (stereo not shown) [Example 164, N-[1-(4-fluorobenzyl)-3-piperidyl]-N-(1H-5-indazolyl)amine], the inhibition in vivo at 30 mg/kg in test [1] (setting [6]) came to 35 ± 4.7%. In addition, the IC50 in test [2] worked out at 16 nM. For the molecule `O=C(NCCF)C(c1ccccc1)N1CCCC(Nc2ccc3[nH]ncc3c2)C1` (stereo not shown) [Example 227, N1-(2-fluoroethyl)-2-[3-(1H-5-indazolylamino)piperidino]-2-phenylacetamide], the inhibition in vivo at 30 mg/kg in test [1] (setting [6]) is 22.2 ± 7.4%. In addition, in test [3] (test compound 3 μM), the inhibition at 3 µM came to 100.3 ± 0.5%. In the case of `FCCNC1CCC(Nc2ccc3[nH]ncc3c2)CC1` (stereo not shown) [Example 246, N1-(2-fluoroethyl)-N4-(1H-5-indazolyl)-1,4-cyclohexanediamine], the “Protein level of urine (mg/kg/day) SEM” value in test [4] (25 mg/liter together with drinking water for two weeks) is recorded as 220.2 ± 17.7 mg/kg/day. Further, in test [3], the inhibition at 0.3 µM came to 41.9 ± 15.4%. For the molecule `CCCN[C@H]1CC[C@@H](Nc2cccc3cnccc23)CC1` [Example 260 (syn)], the inhibition in vivo at 30 mg/kg in test [1] (setting [6]) turned out to be 19.6 ± 10.5%. In test [3], the inhibition at 1 µM worked out at 56.5 ± 14.9%.

Turning to `FCCN[C@H]1CC[C@@H](Nc2cccc3cnccc23)CC1` [Example 261 (syn), N1-(2-Fluoroethyl)-N4-(5-isoquinolyl)-1,4-cyclohexanediamine], the inhibition in vivo at 30 mg/kg in test [1] (setting [6]) worked out at 46.4 ± 4.8%. Also, in test [3], the inhibition at 0.3 µM worked out at 24.2 ± 3.9% and the inhibition at 1 µM amounted to 59.4 ± 10.4%. Take `FCCCN1CCC(Nc2ccc3[nH]ncc3c2)CC1` [Example 289, N-[1-(3-fluoropropyl)-4-piperidyl]-N-(1H-5-indazolyl)amine]: the inhibition in vivo at 30 mg/kg in test [1] (setting [6]) worked out at 30.8 ± 5.7%. Still for that read-out and setting: the same measure for `FC(F)(F)CCN1CCC(Nc2ccc3[nH]ncc3c2)CC1` [Example 290, N-(1H-5-indazolyl)-N-[1-(3,3,3-trifluoropropyl)-4-piperidyl]amine]: 17.2 ± 2.9%. As for `FC(F)(F)c1ccc(CN2CCCC(Nc3ccc4[nH]ncc4c3)C2)cc1` (stereo not shown) [Example 298, N-(1H-5-indazolyl)-N-{1-[4-(trifluoromethyl)-benzyl]-3-piperidyl}amine], the inhibition in vivo at 30 mg/kg in test [1] (setting [7]) was 18.9 ± 3.1%. In test [3], the inhibition at 0.3 µM came out at 15.7 ± 9.9%. For the molecule `Fc1ccc(CN2CCCC(Nc3ccc4[nH]ncc4c3)C2)cc1F` (stereo not shown) [Example 300, N-[1-(3,4-difluorobenzyl)-3-piperidyl)-N-(1H-5-indazolyl)amine], the “Protein level of urine (mg/kg/day) SEM” value in test [4] (oral 30 mg/kg twice daily for two weeks) stood at 602.2 ± 47.3 mg/kg/day. In test [1] (setting [7]), the inhibition in vivo at 30 mg/kg was determined as 24.1 ± 3.8%. The “Protein level of urine (mg/kg/day) ± SEM” value in test [5] is on record as 437.1 ± 95.9 mg/kg/day. Also, the inhibition at 0.3 µM in test [3] amounted to 81.9 ± 11.9%. Consider `CCCN1CCC(Nc2cccc3cnccc23)CC1` [Example 318, N-(5-isoquinolyl)-N-(1-propyl-4-piperidyl)-amine], for which, in test [1] (setting [6]), the inhibition in vivo at 30 mg/kg came to 22.7 ± 5.1%. Same read-out and setting: to `FCCCN1CCC(Nc2cccc3cnccc23)CC1` [Example 322, N-[1-(3-fluoropropyl)-4-piperidyl]-N-(5-isoquinolyl)amine] belongs 41.4 ± 7.4%.

The term IC50 denotes the point on the concentration scale where inhibition reaches its midpoint. High values mean weaker potency, low ones greater potency.

The values above are taken from patent US7217722B2 (Kirin Beer Kabushiki Kaisha, priority 2000, dated 2007).
